# Measurements published in US20260125371A1, “METHOD FOR INHIBITING CLOSTRIDIOIDES DIFFICILE SPORE GERMINATION” (UNIVERSITY OF NOTRE DAME DU LAC, priority 2022, published 2026).
# Where two headings read alike, the source gives them in different places.
# Tests used:
# [1] = test system: Fusobacterium nucleatum HM-992; conditions: cited from earlier work
# [2] = test system: Bacteroides fragilis HM-709; conditions: cited from earlier work
# C. difficile ATCC 43255 [3] = experiment: Determination of minimal-inhibitory concentrations (microdilution), C. difficile ATCC 43255; format: cell-based, Clostridioides difficile; conditions: Clostridioides difficile
# C. difficile strains = conditions: cited from earlier work
# Veillonella sp. HM-49 = conditions: cited from earlier work
# C. difficile ATCC 43255 [4] = conditions: cited from earlier work
# [5] = test system: Bifidobacterium longum HM-846; conditions: cited from earlier work
# [6] = test system: Lactobacillus gasseri HM-644; conditions: cited from earlier work
# [7] = test system: Lactobacillus reuteri HM-102; conditions: cited from earlier work
# S. aureus = experiment: MIC against S. aureus strains; format: cell-based; conditions: Staphylococcus aureus, ATCC29213, 24 h, S. aureus ATCC 29213, 24 h; read-out: MIC (μg/mL) 24 h
# [8] = C. difficile strains of Table 4
compound,measurement,setting,value
FC(F)(F)c1ccc(Oc2ccc(-c3noc(-c4ccc5[nH]ccc5c4)n3)cc2)cc1 [Compound 1],MIC,[1],1 µg/mL
same,MIC,[2],4 µg/mL
same,MIC,"C. difficile ATCC 43255 [3]; ATCC43255, 24 h, C. difficile ATCC 43255, 24 h, read-out: MIC (μg/mL) 24 h",2 µg/mL
same,MIC,"C. difficile ATCC 43255 [3]; ATCC43255, Table 1, strain ATCC 43255, read-out: MIC C. difficile",4 µg/mL
same,IMIC50 (101 strains),C. difficile strains; 101 C. difficile strains,4 µg/mL
same,MIC90 (101 strains),C. difficile strains; 101 C. difficile strains,8 µg/mL
same,MIC,"C. difficile strains; C. difficile 23828, resistant to FDX",4 µg/mL
same,MIC,"C. difficile strains; C. difficile 24531, resistant to VAN",4 µg/mL
same,MIC,"C. difficile strains; C. difficile 26675, resistant to MTZ",4 µg/mL
same,MIC,C. difficile strains; C. difficile BAA-1803,2 µg/mL
same,MIC,C. difficile strains; C. difficile BAA-1870,4 µg/mL
same,MIC,C. difficile strains; C. difficile NR49292,2 µg/mL
same,MIC,C. difficile strains; C. difficile NR49294,1 µg/mL
same,MIC,C. difficile strains; C. difficile NR49302,2 µg/mL
same,MIC,C. difficile strains; C. difficile NR49305,4 µg/mL
same,MIC,C. difficile strains; C. difficile NR49310,2 µg/mL
same,MIC,C. difficile strains; C. difficile NR49318,2 µg/mL
same,MIC50,C. difficile strains; [8],4 µg/mL
same,MIC90,C. difficile strains; [8],8 µg/mL
same,MIC,C. difficile strains; strain ATCC43598,1 µg/mL
same,MIC,C. difficile strains; strain BAA-1801,4 µg/mL
same,MIC,C. difficile strains; strain BAA-1803,2 µg/mL
same,MIC,C. difficile strains; strain BAA-1804,2 µg/mL
same,MIC,C. difficile strains; strain BAA-1812,2 µg/mL
same,MIC,C. difficile strains; strain BAA-1814,4 µg/mL
same,MIC,C. difficile strains; strain BAA-1870,4 µg/mL
same,MIC,C. difficile strains; strain HM-88,8 µg/mL
same,MIC,C. difficile strains; strain HM-89,8 µg/mL
same,MIC,C. difficile strains; strain HM-745,8 µg/mL
same,MIC,C. difficile strains; strain HM-746,4 µg/mL
same,MIC,C. difficile strains; strain HM-747,8 µg/mL
same,MIC,C. difficile strains; strain NR49292,2 µg/mL
same,MIC,C. difficile strains; strain NR49294,1 µg/mL
same,MIC,C. difficile strains; strain NR49302,2 µg/mL
same,MIC,C. difficile strains; strain NR49305,4 µg/mL
same,MIC,C. difficile strains; strain NR49310,2 µg/mL
same,MIC,C. difficile strains; strain NR49318,2 µg/mL
same,MIC,C. difficile strains; strain NR-13427,4 µg/mL
same,MIC,C. difficile strains; strain NR-13428,8 µg/mL
same,MIC,C. difficile strains; strain NR-13429,8 µg/mL
same,MIC,C. difficile strains; strain NR-13430,8 µg/mL
same,MIC,C. difficile strains; strain NR-13431,4 µg/mL
same,MIC,C. difficile strains; strain NR-13433,4 µg/mL
same,MIC,C. difficile strains; strain NR-13434,4 µg/mL
same,MIC,C. difficile strains; strain NR-13435,4 µg/mL
same,MIC,C. difficile strains; strain NR-13436,8 µg/mL
same,MIC,C. difficile strains; strain NR-13437,8 µg/mL
same,MIC,C. difficile strains; strain NR-13438,4 µg/mL
same,MIC,C. difficile strains; strain NR-13553,4 µg/mL
same,MIC,C. difficile strains; strain NR-32882,4 µg/mL
same,MIC,C. difficile strains; strain NR-32883,4 µg/mL
same,MIC,C. difficile strains; strain NR-32884,4 µg/mL
same,MIC,C. difficile strains; strain NR-32885,8 µg/mL
same,MIC,C. difficile strains; strain NR-32886,4 µg/mL
same,MIC,C. difficile strains; strain NR-32887,8 µg/mL
same,MIC,C. difficile strains; strain NR-32888,8 µg/mL
same,MIC,C. difficile strains; strain NR-32889,4 µg/mL
same,MIC,C. difficile strains; strain NR-32890,4 µg/mL
same,MIC,C. difficile strains; strain NR-32891,8 µg/mL
same,MIC,C. difficile strains; strain NR-32892,4 µg/mL
same,MIC,C. difficile strains; strain NR-32895,2 µg/mL
same,MIC,C. difficile strains; strain NR-32896,2 µg/mL
same,MIC,C. difficile strains; strain NR-32897,8 µg/mL
same,MIC,C. difficile strains; strain NR-32900,8 µg/mL
same,MIC,C. difficile strains; strain NR-32903,8 µg/mL
same,MIC,C. difficile strains; strain NR-32904,4 µg/mL
same,MIC,C. difficile strains; strain NR-49277,4 µg/mL
same,MIC,C. difficile strains; strain NR-49278,4 µg/mL
same,MIC,C. difficile strains; strain NR-49279,4 µg/mL
same,MIC,C. difficile strains; strain NR-49280,8 µg/mL
same,MIC,C. difficile strains; strain NR-49281,4 µg/mL
same,MIC,C. difficile strains; strain NR-49282,8 µg/mL
same,MIC,C. difficile strains; strain NR-49283,8 µg/mL
same,MIC,C. difficile strains; strain NR-49284,8 µg/mL
same,MIC,C. difficile strains; strain NR-49285,4 µg/mL
same,MIC,C. difficile strains; strain NR-49286,4 µg/mL
same,MIC,C. difficile strains; strain NR-49287,4 µg/mL
same,MIC,C. difficile strains; strain NR-49288,4 µg/mL
same,MIC,C. difficile strains; strain NR-49289,8 µg/mL
same,MIC,C. difficile strains; strain NR-49290,8 µg/mL
same,MIC,C. difficile strains; strain NR-49291,8 µg/mL
same,MIC,C. difficile strains; strain NR-49293,4 µg/mL
same,MIC,C. difficile strains; strain NR-49295,4 µg/mL
same,MIC,C. difficile strains; strain NR-49296,4 µg/mL
same,MIC,C. difficile strains; strain NR-49297,4 µg/mL
same,MIC,C. difficile strains; strain NR-49298,4 µg/mL
same,MIC,C. difficile strains; strain NR-49299,4 µg/mL
same,MIC,C. difficile strains; strain NR-49300,4 µg/mL
same,MIC,C. difficile strains; strain NR-49301,4 µg/mL
same,MIC,C. difficile strains; strain NR-49303,4 µg/mL
same,MIC,C. difficile strains; strain NR-49304,4 µg/mL
same,MIC,C. difficile strains; strain NR-49306,4 µg/mL
same,MIC,C. difficile strains; strain NR-49307,4 µg/mL
same,MIC,C. difficile strains; strain NR-49308,8 µg/mL
same,MIC,C. difficile strains; strain NR-49309,4 µg/mL
same,MIC,C. difficile strains; strain NR-49311,4 µg/mL
same,MIC,C. difficile strains; strain NR-49312,8 µg/mL
same,MIC,C. difficile strains; strain NR-49313,4 µg/mL
same,MIC,C. difficile strains; strain NR-49314,4 µg/mL
same,MIC,C. difficile strains; strain NR-49315,4 µg/mL
same,MIC,C. difficile strains; strain NR-49316,4 µg/mL
same,MIC,C. difficile strains; strain NR-49317,8 µg/mL
same,MIC,C. difficile strains; strain NR-49319,8 µg/mL
same,MIC,C. difficile strains; strain NR-49320,4 µg/mL
same,MIC,C. difficile strains; strain NR-49321,8 µg/mL
same,MIC,C. difficile strains; strain NR-49323,8 µg/mL
same,MIC,C. difficile strains; strain NR-49324,8 µg/mL
same,MIC,C. difficile strains; strain NR-49325,8 µg/mL
same,MIC,C. difficile strains; strain NR-49326,4 µg/mL
same,MIC,C. difficile strains; strain NR-49327,4 µg/mL
same,MIC,C. difficile strains; strain NR-49328,4 µg/mL
same,MIC,C. difficile strains; strain NR-49329,4 µg/mL
same,MIC,C. difficile strains; strain RMA23691,4 µg/mL
same,MIC,C. difficile strains; strain RMA23828,4 µg/mL
same,MIC,C. difficile strains; strain RMA24531,4 µg/mL
same,MIC,C. difficile strains; strain RMA24923,4 µg/mL
same,MIC,C. difficile strains; strain RMA26675,4 µg/mL
same,MIC,C. difficile strains; strain RMA27081,2 µg/mL
same,MIC,C. difficile strains; strain RMA27173,4 µg/mL
same,MIC,Veillonella sp. HM-49,>128 µg/mL
same,MIC,C. difficile ATCC 43255 [4]; C. difficile ATCC43255,2 µg/mL
same,MIC,"C. difficile ATCC 43255 [4]; C. difficile ATCC 43255, earlier publication",4 µg/mL
same,MIC,C. difficile ATCC 43255 [4]; strain ATCC43255,2 µg/mL
same,MIC,[5],0.25 µg/mL
same,MIC,[6],>128 µg/mL
same,MIC,[7],>128 µg/mL
same,MIC,S. aureus,4 µg/mL
